Source: US20260027145A1 (priority 2022, published 2026)
Entries after “also recorded” stand apart in the source; their conditions may differ. Read-outs that look alike come from different tables or passages of the source.

Legend:
resting pan-T cells [1] = assay type: cell-based, human
resting pan-T cells [2] = tested on: resting pan-T cells
IFITM1 [3] = assay type: cell-based, human
IFITM1 [4] = assay type: cell-based, human; remark: listed apart in the source
CD8+ cells = assay type: cell-based, human
IFITM1 [5] = assay type: cell-based, human; remark: listed apart in the source
resting pan-T cells [6] = assay type: cell-based, human; remark: listed apart in the source
IFITM1 [7] = assay type: cell-based, human; remark: listed apart in the source
[8] = tested on: phosphorylated SAMHD1 (pSAMHD1); assay type: cell-based, human; settings: CD4+ and CD8+ T cells; for proportion of pSAMHD1 to total SAMHD1: IL-7 15 ng/mL, IL-15 15 ng/mL or both
Protocol: The effect of IL-7 and IL-15 on phosphorylated SAMHD1 (pSAMHD1) and IFITM1 expression was assessed. CD4+ and CD8+ T cells were treated with either IL-2 (100 U/mL), IL-15 (15 ng/mL), IL-7 (15 ng/mL), or a composition comprising both IL-7 and IL-15. Cells were activated with anti-CD3/[…] antibody coated beads at a ratio of 3:1, and then cells were assessed for expression of IFITM1 or pSAMHD1. Aggregate densitometry across multiple donors are shown in FIG. 3A (CD8+) and FIG. 3B (CD4+), while representative western blots are also depicted in FIG. 3C (CD8+) and FIG. 3D (CD4+).

pSAMHD1 = assay type: cell-based, human

`C[C@@H]1[C@H](O)[C@@H](C)/C=C/C=C/C=C/C=C/C=C/C=C/C=C/[C@H](O[C@@H]2O[C@H](C)[C@@H](O)[C@H](N)[C@@H]2O)C[C@@H]2O[C@](O)(C[C@@H](O)C[C@@H](O)[C@H](O)CC[C@@H](O)C[C@@H](O)CC(=O)O[C@H]1C)C[C@H](O)[C@H]2C(=O)O` [AmphoB, Amphotericin B] was tested, and the “concentrations at which gain in transduction efficiency is seen” value (resting pan-T cells [1]) was no less than 0.1 µM, the “transduction efficiency (% GFP)” value (resting pan-T cells [1]) was “increased transduction efficiency” and the “CD8 and CD4 cell number” value (resting pan-T cells [2]) was “slightly reduced”. For the same molecule, the “restriction factor IFITM1 (western blot)” value (IFITM1 [3]) was “inactivation or loss”.
For `CO[C@H]1C[C@@H]2CC[C@@H](C)[C@@](O)(O2)C(=O)C(=O)N2CCCC[C@H]2C(=O)O[C@H]([C@H](C)C[C@@H]2CC[C@@H](OC(=O)C(C)(CO)CO)[C@H](OC)C2)CC(=O)[C@H](C)/C=C(\C)[C@@H](O)[C@@H](OC)C(=O)[C@H](C)C[C@H](C)/C=C/C=C/C=C/1C` [TEM, temsirolimus], the “transduction of the GFP transgene (% GFP)” value (resting pan-T cells [1]) was “enhance transduction”, the CD3 number (resting pan-T cells [2]) was “remained generally consistent” and the “CD8 and CD4 T-cells (cell counts)” value (resting pan-T cells [2]) was “reduced”. For the same molecule, the IFITM1 protein expression (IFITM1 [4]) was “pronounced loss of IFITM1 protein expression” and the “transduction efficiency (viral copy number per diploid genome)” value (CD8+ cells) was “Increased transduction efficiency”.
With `CO[C@H]1C[C@@H]2CC[C@@H](C)[C@@](O)(O2)C(=O)C(=O)N2CCCC[C@H]2C(=O)O[C@H]([C@H](C)C[C@@H]2CC[C@@H](O)[C@H](OC)C2)CC(=O)[C@H](C)/C=C(\C)[C@@H](O)[C@@H](OC)C(=O)[C@H](C)C[C@H](C)/C=C/C=C/C=C/1C` [rapamycin] the “downregulation of IFITM1 expression” value (IFITM1 [5]) was 20-35% and the “reduction of IFITM1 expression” value (IFITM1 [5]) was 5-40%.
IL-7: recombinant cytokine was tested, and the “transduction efficiency (% GFP) with cytokine pretreatment” value (resting pan-T cells [1]) was “positively impact transduction; also recorded: increased transduction efficiency”, the “transduction efficiency (% GFP)” value (resting pan-T cells [6]) was “did not lead to dose-dependent differences in transduction efficiency” and the IFITM1 expression (IFITM1 [7]) was “similarly increased”. The “levels of pSAMHD1” value ([8]; IL-7 15 ng/mL pre-treatment) was “increased levels of pSAMHD1”, the “proportion of pSAMHD1 to total SAMHD1” value [8] was “increased” and the “cytotoxicity (Nalm6 loss related to untransduced controls)” value (Nalm6 cells) was “Increased cytotoxicity”. For the same molecule, the pSAMHD1 levels (pSAMHD1) was “increase in pSAMHD1 levels”.
In the case of IL-15: recombinant cytokine, the IFITM1 expression (IFITM1 [7]) is reported as “similarly increased” and the “proportion of pSAMHD1 to total SAMHD1” value [8] is reported as “increased”.
